According to US20180321220A1, “UNIVERSAL BIOELECTROCHEMICAL METABOLIC FLUX MEASUREMENT SYSTEM AND METHODS OF MAKING AND USING THE SAME” (Saint Louis University, priority 2015, published 2018):

Tests used:
mouse liver mitochondria [1] = conditions: pyruvate as substrate, in words; Dröse et al. cited; cited from earlier work
mouse liver mitochondria [2] = experiment: Metabolic flux analysis (amperometry) of mouse liver mitochondria suspension; assay type: biochemical; conditions: for attenuation of electron flux / inhibitory response (electron flux): in words; for Electron flux generated: rotenone present (1 μl of 1 mg/ml in DMSO), 120 seconds of measurement, 600 mV; for inhibitory response (electron flux): substrate not stated
Description: (§1) Materials. Sodium phosphate monobasic (Sigma), sodium phosphate dibasic (Sigma), sodium chloride (Sigma), sodium pyruvate (Sigma), citric acid (Sigma), rotenone (Sigma), adenosine diphosphate (Sigma), sucrose (Sigma), Tris-EDTA (Sigma), Protease inhibitor cocktail (Sigma), deionized water (in house), and dimethylsulfoxide (Sigma) were used as received. All wild-type Drosophila larvae were hatched and grown on standard cornmeal-agar-molasses-yeast food at room temperature. Individual larvae were selected used for metabolic flux analysis. Mitochondria were isolated from normal mice liver. All steps were carried out at 4° C. Tissues were kept on ice. The liver tissue was homogenized in 3 volumes of Buffer A (0.33 M sucrose, 1.33 m M Tris-EDTA, pH 7.4 buffer containing protease inhibitors) using potter Dounce homogenizer. Once homogenized two more volumes of Buffer A were added and mixed before centrifugation at 1000 Xg for 10-15 mins. The supernatant was then recovered and centrifuged 2 times more to remove impurities. Finally, the supernatant was recovered and centrifuged at 15,000 Xg for 20 mins. The mitochondrial pellet recovered from the bottom of the centrifuge tube and suspended at a protein concentration of 35 mg/ml in phosphate buffered saline at pH 7.5. Once the extraction was complete the mitochondria was stored at −80° C. in small aliquots for further use.
Metabolic flux analysis. The electrochemical test setup consisted of a USTAT 200 Bipotentiostat coupled to a Dropsens SPE 110 screen printed electrode chip that included a carbon working electrode, a carbon counter electrode, and a silver reference electrode. The working substrate solution consisted of pH 7.40 10 mM phosphate buffer, 137 mM sodium chloride, 10 mM metabolic substrate, and 1 mg/ml adenosine diphosphate. The inhibitor solution consisted of 1 mg/ml rotenone in dimethyl sulfoxide. For uninhibited experiments pure dimethyl sulfoxide was used to maintain consistency. To the electrode 35 μl of substrate solution was dropped on top of the 3 electrode working area of the chip ensuring that all of the electrode surfaces were thoroughly wetted. To this drop, 1 μl of dimethyl sulfoxide was added that may or may not contain inhibitor. When the experiment was ready to begin the sample was added to the electrode. For mitochondrial suspension, 15 μL of the suspension was added to the working area of the chip. For the larvae, one larvae was placed into the drop of solution on to the working electrode. Amperometry was then performed with an applied potential of 600 mV with respect to the reference electrode for 120 seconds.

whole drosophilae larvae = experiment: Metabolic flux analysis (amperometry) of whole Drosophila larvae; assay type: in vivo
Description: as §1, with “Once the extraction was complete the mitochondria was stored at −80° C. in small aliquots for further use.” left out
Metabolic flux analysis. […] When the experiment was ready to begin the sample was added to the electrode. […]

Molecule: CC1=NS(=O)(=O)c2cc(Cl)ccc2N1 [diazoxide]
- inhibition of electron flux (mouse liver mitochondria [1]): partial inhibition

Molecule: C=C(C)[C@H]1Cc2c(ccc3c2O[C@@H]2COc4cc(OC)c(OC)cc4[C@@H]2C3=O)O1 [rotenone]
- attenuation of electron flux (mouse liver mitochondria [2]; citrate as metabolic substrate): did not exhibit significant inhibition
- Electron flux generated (mouse liver mitochondria [2]; citrate as substrate): 1.536×10^−4 micromoles of electrons
- attenuation of electron flux (mouse liver mitochondria [2]; pyruvate as metabolic substrate): diminished
- Electron flux generated (mouse liver mitochondria [2]; pyruvate as substrate): 1.435×10^−4 micromoles of electrons
- inhibitory response (electron flux) (mouse liver mitochondria [2]): strong inhibitory responses
- Electron flux generated (whole drosophilae larvae; glucose as substrate, rotenone present (1 μl of 1 mg/ml in DMSO), 120 seconds of measurement, 600 mV): 3.302×10^−4 micromoles of electrons
- attenuation of metabolic flux (whole drosophilae larvae; glucose solution, in words): diminished

Molecule: antimycin
- inhibitory response (electron flux) (mouse liver mitochondria [2]): strong inhibitory responses
